Data on three molecules can be found in patent publication US8389512B2 (priority 2008, dated 2013).

One may read the Cmax as the peak of the concentration-time curve. The MRT is a mean duration of stay, worked out from the concentration-time curve. Broadly, the bioavailability is dose-corrected exposure relative to a reference, in per cent. Read a high bioavailability as much systemic uptake.

Data set [1] is described as follows: 4 hr in-vivo study: meloxicam plasma concentration after oral delivery to rats. Particulars: rat.
From the text: Male Sprague-Dawley rats, 250-300 g, received with a surgically implanted jugular catheter in place from (Harlan or Taconic Laboratories, USA). Animals were housed one per polycarbonate cage utilizing individual cage cards, with free access to food and water in accordance with NIH guidelines. Animals were quarantined at least 24 hrs after arrival prior to use and patency of the implanted catheter determined on the day of the test. Environmental controls for the animal room were set to maintain 18 to 26° C., a relative humidity of 30 to 70%, a minimum of 10 air changes/hour, and a 12-hour light/12-hour dark cycle. […] Each rat was weighed and the dose volume adjusted accordingly so that the effect of weight variability on results of study was eliminated and that each rat received 1 mg/kg dose.
Briefly, using a gradient elution with a Waters Symmetry C18 column (Waters Inc. USA), LCMS with selective reaction monitoring, protein precipitation of the plasma sample using acetonitrile where an LOQ of 50 ng/ml was achieved. Pharmacokinetic parameters were calculated from individual animal samples using appropriate software (PK Solutions 2.0, Summit Research Services, Montrose, Calif., USA).
Data set [2] can be described thus: 24 hr in-vivo study: meloxicam plasma concentration and pharmacokinetics after oral (gavage) administration to male rats. The settings on record: for meloxicam plasma concentration / AUC (area under the plasma concentration-time curve at 24 h) / Cmax (peak plasma concentration) / F (bioavailability) / Time to Reach 0.59 μg/ml: male rats, 1 mg/kg oral; for AUC (area under the plasma concentration-time curve at 24 h) / Cmax (peak plasma concentration) / F (bioavailability): mean N = 5; for Time to Reach 0.59 μg/ml: calculated by interpolation of time vs. concentration data. An excerpt: Male Sprague-Dawley rats, 250-300 g, received with a surgically implanted jugular catheter in place from (Harlan or Taconic Laboratories, USA). Animals were housed one per polycarbonate cage utilizing individual cage cards, with free access to food and water in accordance with NIH guidelines. Animals were quarantined at least 24 hrs after arrival prior to use and patency of the implanted catheter determined on the day of the test. Environmental controls for the animal room were set to maintain 18 to 26° C., a relative humidity of 30 to 70%, a minimum of 10 air changes/hour, and a 12-hour light/12-hour dark cycle. Rats historically have been used in safety evaluation and PK screening studies and are recommended by appropriate regulatory agencies. […] Each rat was weighed and the dose volume adjusted accordingly so that the effect of weight variability on results of study was eliminated and that each rat received 1 mg/kg dose.
(§1) Pharmacokinetic parameters were calculated from individual animal samples using appropriate software (PK Solutions 2.0, Summit Research Services, Montrose, Calif., USA).

The nature of data set [3]: IV comparator group, meloxicam pharmacokinetics in rats. The settings on record: Sprague-Dawley, rat, plasma, 1 mg/kg, PEG400:DMSO formulation. The data set is classed as in vivo. On the procedure: In addition, IV comparator group of 5 rats was used to calculate MAT (mean absorption time) and ka (absorption rate constant) parameters since such parameters cannot be determined for the oral groups.
200 micro liters of blood withdrawn from the indwelling intravenous catheter at 5 minutes, 15 minutes, 30 minutes, 45 minutes, 1, 2, 4, 8, 12 and 24 hours to provide sufficient amount of serum for analysis.
as §1

The conditions of data set [4]: cited from earlier work.
The nature of data set [5]: Accelerated stability testing of cocrystals (PXRD, FTIR). Particulars: 2 months at 40° C.
Where [6] appears, read: male, Sprague-Dawley, rat, plasma, po, 1 mg/kg.

With `Cc1cnc(NC(=O)C2=C(O)c3ccccc3S(=O)(=O)N2C)s1.Cc1cnc(NC(=O)C2=C(O)c3ccccc3S(=O)(=O)N2C)s1.O=C(O)CCC(=O)O` [Cocrystal 144, Meloxicam:Succinic Acid Cocrystal (2:1)], the meloxicam plasma concentration in data set [1] (time 0 min) was found to be 0 µg/mL; in data set [1] (time 15 min), 13.76 µg/mL; in data set [1] (time 45 min) it was 32.54 µg/mL; in data set [1] (time 60 min), 38.13 µg/mL; in data set [1] (time 120 min), 44.02 µg/mL; in data set [1] (time 240 min) it was 43.47 µg/mL. In data set [2] (N = 5, 0.25 hour), this molecule gave a meloxicam plasma concentration of 0.23 µg/mL. In data set [2], the “AUC (area under the plasma concentration-time curve at 24 h)” value came out at 28400 ng·h/mL. The “Cmax (peak plasma concentration)” value in data set [2] worked out at 1780 ng/mL. Further, in data set [2], the “F (bioavailability)” value is 44.7%. In addition, the “Time to Reach 0.59 μg/ml” value in data set [2] is on record as 45.1 min.
As to `Cc1cnc(NC(=O)C2=C(O)c3ccccc3S(=O)(=O)N2C)s1` [Meloxicam, (8E)-8-[hydroxy-[(5-methyl-1,3-thiazol-2-yl)amino]methylidene]-9-methyl-10,10-dioxo-10λ^6-thia-9-azabicyclo[4.4.0]deca-1,3,5-trien-7-one, reference compound], the concentration at 0 min in data set [1] (male, Sprague-Dawley, plasma, 1 mg/kg, time 0 min) stood at 0 ng/mL. This molecule also had a concentration at 15 min in data set [1] (male, Sprague-Dawley, plasma, 1 mg/kg, time 15 min) of 8190 ng/mL. In data set [1] (male, Sprague-Dawley, plasma, 1 mg/kg, time 30 min), this molecule registered a concentration at 30 min of 14800 ng/mL. This molecule displayed a concentration at 45 min in data set [1] (male, Sprague-Dawley, plasma, 1 mg/kg, time 45 min) of 19600 ng/mL. This molecule displayed a concentration at 60 min in data set [1] (male, Sprague-Dawley, plasma, 1 mg/kg, time 60 min) of 24000 ng/mL. The molecule also gave a concentration at 120 min in data set [1] (male, Sprague-Dawley, plasma, 1 mg/kg, time 120 min) of 30200 ng/mL. This molecule also came in with a concentration at 240 min in data set [1] (male, Sprague-Dawley, plasma, 1 mg/kg, time 240 min) of 39400 ng/mL. For the same molecule, the “Time to Reach 0.59 μg/ml” value in data set [2] was 270.0 min. Besides, in data set [2] (setting [6]), the AUC is 10000 ng·h/mL, the highest level (Cmax) was 590 ng/mL, the MRT was 21.8 h and the bioavailability came out at 15.7%. Moreover, in data set [2] (setting [6]), the concentration at 0.0833 hour was found to be 20 ng/mL, the concentration at 0.25 hour was determined as 190 ng/mL, the concentration at 0.5 hour amounted to 280 ng/mL and the concentration at 0.75 hour worked out at 320 ng/mL. Moreover, in data set [2] (setting [6]), the concentration at 1 hour stood at 390 ng/mL, the concentration at 2 hour came out at 510 ng/mL, the concentration at 4 hour was found to be 540 ng/mL and the concentration at 8 hour was 530 ng/mL. For the same molecule, in data set [2] (setting [6]), the concentration at 12 hour was determined as 460 ng/mL and the concentration at 24 hour came out at 240 ng/mL. The AUC in data set [3] (read-out: AUC (area under the plasma concentration-time curve at 24 h)) worked out at 63600 ng·h/mL. Also, in data set [3] (read-out: MRT (mean residence time)), the mean residence time MRT was found to be 14.7 h. In addition, in data set [4] (methanol), the solubility in methanol result is “very slightly soluble”. In data set [4] (strong acids and bases, compared with water), the “solubility in strong acids and bases” value is “higher solubility”. Also, in data set [4] (water), the solubility in water result was “practically insoluble”.
On to “Meloxicam:Aspirin Cocrystal (1:1) [Cocrystal 73]”, for which the meloxicam plasma concentration came to 0 µg/mL in data set [1] (time 0 min); 26.94 µg/mL in data set [1] (time 15 min); 42.67 µg/mL in data set [1] (time 30 min); 50.18 µg/mL in data set [1] (time 45 min); 52.67 µg/mL in data set [1] (time 60 min); 59.23 µg/mL in data set [1] (time 120 min). For the same molecule, the meloxicam plasma concentration in data set [1] (time 240 min) was determined as 60.85 µg/mL; in data set [2] (N = 5, 0.0833 hour) it was 0.13 µg/mL; in data set [2] (N = 5, 0.25 hour), 0.87 µg/mL; in data set [2] (N = 5, 0.5 hour) it was 1.14 µg/mL; in data set [2] (N = 5, 0.75 hour) it was 1.37 µg/mL; in data set [2] (N = 5, 1 hour), 1.74 µg/mL. Also, the meloxicam plasma concentration in data set [2] (N = 5, 2 hour) was determined as 2.49 µg/mL; in data set [2] (N = 5, 4 hour), 2.51 µg/mL; in data set [2] (N = 5, 8 hour), 2.34 µg/mL; in data set [2] (N = 5, 12 hour), 1.83 µg/mL; in data set [2] (N = 5, 24 hour), 1.16 µg/mL. In addition, the “AUC (area under the plasma concentration-time curve at 24 h)” value in data set [2] came out at 44100 ng·h/mL. Also, the “Cmax (peak plasma concentration)” value in data set [2] was found to be 2700 ng/mL. Moreover, in data set [2], the “F (bioavailability)” value was 69.4%. Further, in data set [2], the “Time to Reach 0.59 μg/ml” value is listed as 10.6 min. Besides, the “Stability in accelerated stability testing (PXRD profiles)” value in data set [5] (75% RH open and closed vials, and 6 months at 40° C. open vial) is listed as “stable for 6 months”. For the same molecule, the “Stability in accelerated stability testing (FTIR profiles)” value in data set [5] (75% RH, vials open or closed) is recorded as “stable for 2 months”.
